In patent publication US11345710B2, “Imidazo[1,2-b]pyrimido[4,5-d]pyridazin-5(6H)-ones and the use thereof” (IMPACT THERAPEUTICS (SHANGHAI), INC, priority 2017, dated 2022) one finds IC50 data, which are given here for seven compounds.

By pIC50 is commonly meant the negative decadic logarithm of the IC50, by convention in mol/L.

pIC50: −log10 of the molar value. Like-named read-outs stand apart in the source and are kept apart here.

One experiment has as its system NCI-H1299 cells. As to the kind of experiment: MTT based cell viability assay on NCI-H1299 cells. To be noted: Homo sapiens, read-out: IC50, growth inhibition on NCI-H1299 cells. As to the method:
Determination of the Cell Growth Inhibiting Activity of 6-(2,6-dichlorophenyl)-2-((4-(4-methylpiperazin-1-yl)phenyl)amino)imidazo[1,2-b]pyrimido[4,5-d]pyridazin-5(6H)-one and Analogs on NCI-H1299 Cells Using a MTT Based Cell Viability Assay
The thawed NCI-H1299 cells were cultured and passaged to the third generation, and the growth state was good and the confluence was about 90%, which began to be used in the experiment. The NCI-H1299 cells were digested with trypsin, centrifuged at 800 rpm for 5 min, the supernatant was discarded, resuspended with fresh culture medium, and counted. 1000 Cells are seeded to each well of a 96-well plate. The cells are incubated at 37° C. in a 5% CO2 cell culture incubator overnight. The tested sample (including the tested compound and the reference compound AZD1775) was diluted continuously to 8 concentrations (the last concentration was negative control of DMSO) with a 1:3 and 1:10 dilution in DMSO respectively: 10 μM, 3.3 μM, 1 μM, 0.33 μM, 0.1 μM, 0.033 μM, 0.01 μM, 0 μM (the final concentration of DMSO was 1%). 5 μL of each concentration was added to 120 μL of culture medium (25 times diluted), and the mixture was shaken well. The overnight cells were taken and the culture medium was removed, 195 μL of fresh culture medium was added to each well, and 5 μL of diluted culture medium containing the corresponding concentration of the tested sample was added respectively, and the culture plate was then placed in the 5% CO2 cell culture incubator at 37° C. for 3 d. After removing the original solution and adding 100 μL of fresh serum-free DMEM culture medium containing MTT (0.5 mg/mL) per well, the culture was continued. The original solution was removed after 4 hrs and 100 μl DMSO was added to each well. The 96-well cell culture plates were shaken away from light for 10 min and readed in a multifunctional reader at 552/630/690 nm to give absorption values (OD values). The data were analyzed using a graphic software (Graph Pad Prism 5.0) and the inhibitory activity of the compound on cell proliferation was plotted in terms of cell survival and compound concentration. The IC50 values were fitted by the S-shaped dose-response curve equation as follows: Y=100/(1+10^(Log C−Log IC50)), where C was the concentration of testing compounds.

The next experiment has as its system LoVo cells. Briefly: MTT based cell viability assay on LoVo cells. As to conditions: Homo sapiens, 72 h, read-out: IC50, growth inhibition on LoVo cells. As to the method:
Determination of the Cell Growth Inhibiting Activity of 6-(2,6-dichlorophenyl)-2-((4-(4-methylpiperazin-1-yl)phenyl)amino)imidazo[1,2-b]pyrimido[4,5-d]pyridazin-5(6H)-one and Analogs Thereof on LoVo Cells Using a MTT Based Cell Viability Assay
The thawed LoVo cells were cultured and passaged to the third generation, and the growth state was good and the confluence was about 90%, which began to be used in the experiment. The LoVo cells were digested with trypsin, centrifuged at 800 rpm for 5 min, the supernatant was discarded, resuspended with fresh culture medium, and counted. 6000 Cells are seeded to each well of a 96-well cell culture plate. The cells were incubated at 37° C. in a 5% CO2 cell culture incubator overnight. The tested sample (including the tested compound and the reference compound AZD1775) was diluted continuously to 8 concentrations (the last concentration was negative control of DMSO) with a 1:3 and 1:10 dilution in DMSO respectively: 10 μM, 3.3 μM, 1 μM, 0.33 μM, 0.1 μM, 0.033 μM, 0.01 μM, 0 μM (the final concentration of DMSO was 1%). 5 μL of each concentration was added to 120 μL of culture medium (25 times diluted), and the mixture was shaken well. The overnight cells were taken and the culture medium was removed, 195 μL of fresh culture medium was added to each well, and 5 μL of diluted culture medium containing the corresponding concentration of the tested sample was added respectively, and the culture plate was then placed in the 5% CO2 cell culture incubator at 37° C. for 3 d. After removing the original solution and adding 100 μL of fresh serum-free DMEM culture medium containing MTT (0.5 mg/mL) per well, the culture was continued. The original solution was removed after 4 hrs and 100 μl DMSO was added to each well. The 96-well cell culture plates were shaken away from light for 10 min and readed in a multifunctional reader at 552/630/690 nm to give absorption values (OD values). The data were analyzed using a graphic software (Graph Pad Prism 5.0) and the inhibitory activity of the compound on cell proliferation was plotted in terms of cell survival and compound concentration. The IC50 values were fitted by the S-shaped dose-response curve equation as follows: Y=100/(1+10^(Log C−Log IC50)), where C was the concentration of testing compounds.

Setting [1] is: 72 h, NCI-H1299 cells, 3 d, MTT.

Regarding `Cc1cc(Nc2ncc3c(=O)n(-c4c(F)cccc4Cl)n4ccnc4c3n2)ccc1N1C[C@@H](C)N(C)[C@@H](C)C1` [Example 24, 6-(2-chloro-6-fluorophenyl)-2-((3-methyl-4-((3S,5R)-3,4,5-trimethylpiperazin-1-yl)phenyl)amino)imidazo[1,2-b]pyrimido[4,5-d]pyridazin-5(6H)-one], the pIC50 in the experiment on NCI-H1299 cells (setting [1]) is 6.48; in the experiment with LoVo cells (LoVo cells, 3 d, MTT), 6.45.

As to `C[C@@H]1CN(c2ccc(Nc3ncc4c(=O)n(-c5c(Cl)cccc5Cl)n5ccnc5c4n3)cc2)C[C@H](C)N1C` [Example 30, 6-(2,6-dichlorophenyl)-2-((4-((3S,5R)-3,4,5-trimethylpiperazin-1-yl)phenyl)amino)imidazo[1,2-b]pyrimido[4,5-d]pyridazin-5(6H)-one], the pIC50 with NCI-H1299 cells (NCI-H1299, 72 h) is 6.29; in the experiment with LoVo cells (LoVo), 6.11.

As to `C[C@@H]1CN(c2ccc(Nc3ncc4c(=O)n(-c5c(Cl)cccc5Cl)n5ccnc5c4n3)cc2F)C[C@H](C)N1C` [Example 31, 6-(2,6-dichlorophenyl)-2-((3-fluoro-4-((3S,5R)-3,4,5-trimethylpiperazin-1-yl)phenyl)amino)imidazo[1,2-b]pyrimido[4,5-d]pyridazin-5(6H)-one], the pIC50 in the experiment with NCI-H1299 cells (NCI-H1299, 72 h) is 6.17; in the experiment with LoVo cells (LoVo), 6.09.

On to `C[C@@H]1CN(c2ccc(Nc3ncc4c(=O)n(-c5c(Cl)cccc5Cl)n5ccnc5c4n3)cc2Cl)C[C@H](C)N1C` [Example 32, 6-(2,6-dichlorophenyl)-2-((3-chloro-4-((3S,5R)-3,4,5-trimethylpiperazin-1-yl)phenyl)amino)imidazo[1,2-b]pyrimido[4,5-d]pyridazin-5(6H)-one], for which the pIC50 was 6.29 with NCI-H1299 cells (NCI-H1299, 72 h) and 6.17 in the experiment with LoVo cells (LoVo).

As for `Cc1cc(Nc2ncc3c(=O)n(-c4c(Cl)cccc4Cl)n4ccnc4c3n2)ccc1N1C[C@@H](C)N(C)[C@@H](C)C1` [Example 33, 6-(2,6-dichlorophenyl)-2-((3-methyl-4-((3S,5R)-3,4,5-trimethylpiperazin-1-yl)phenyl)amino)imidazo[1,2-b]pyrimido[4,5-d]pyridazin-5(6H)-one], the pIC50 is 6.63 in the experiment on NCI-H1299 cells (NCI-H1299, 72 h) and 6.40 with LoVo cells (LoVo).

As for `Cc1cc(Nc2ncc3c(=O)n(-c4c(Cl)cccc4Cl)n4ccnc4c3n2)ccc1C1CCN(C)CC1` [Example 41, 6-(2,6-dichlorophenyl)-2-((3-methyl-4-(1-methylpiperidin-4-yl)phenyl)amino)imidazo[1,2-b]pyrimido[4,5-d]pyridazin-5(6H)-one], the pIC50 in the experiment with NCI-H1299 cells (NCI-H1299, 72 h) was 6.73; in the experiment on LoVo cells (LoVo), 6.67.

Take `CCc1cn2c(n1)c1nc(Nc3ccc(N4CCN(C)CC4)c(C)c3)ncc1c(=O)n2-c1c(Cl)cccc1Cl` [Example 60, 6-(2,6-dichlorophenyl)-2-((3-methyl-4-(4-methylpiperazin-1-yl)phenyl)amino)-9-ethylimidazo[1,2-b]pyrimido[4,5-d]pyridazin-5(6H)-one]: the pIC50 in the experiment on NCI-H1299 cells (setting [1]) was 6.79; with LoVo cells (LoVo cells, 3 d, MTT), 6.49.
